The EC50 is the midpoint of the concentration-response curve.

Each structure is given as a SMILES string.

The source of these data is patent publication US9586978B2, “Anti-viral compounds” (AbbVie Inc., priority 2009, dated 2017).

The subject of assay [1] is HCV 1a replicon containing NS5A mutation M28V. The assay is described as follows: HCV 1a M28V replicon assay. Type of assay: cell-based. Particulars: Hepatitis C virus, read-out: EC50 (nM) 1a M28V. Here is the method:
(§1) Table 2 compares compounds containing unsubstituted benzimidazole to those containing halo-substituted benzimidazole. Anti-viral activities were assessed using wild-type replicons (e.g., 1b WT or 1a WT) as well as replicons containing specific NS5A mutations (e.g., 1b L28T, 1b Y93H, 1a L31V, 1a Y93C, 1a M28V, or 1a Q30E) in the absence of FBS.
(In general: Replicon systems follow genome replication, usually without infectious particles.)

Assay [2] has as its system HCV 1a replicon containing NS5A mutation Q30E. The assay is described as follows: HCV 1a Q30E replicon assay. Type of assay: cell-based. To be noted: Hepatitis C virus, read-out: EC50 (nM) 1a Q30E. Here is the method:
as §1

Assay [3] deals with HCV 1b replicon containing NS5A mutation Y93H. The assay is described as follows: HCV 1b Y93H replicon assay. The format is cell-based, Hepatitis C virus. Particulars: Hepatitis C virus, read-out: EC50 (nM) 1b Y93H. Here is the method:
as §1

Assay [4] concerns HCV 1a replicon containing NS5A mutation Y93C. The assay is described as follows: HCV 1a Y93C replicon assay. Type of assay: cell-based. Particulars: Hepatitis C virus, read-out: EC50 (nM) 1a Y93C. The method, then:
as §1

The test system of another assay is HCV genotype 1a replicon. The assay is described as follows: HCV genotype 1a replicon assay. Type of assay: cell-based, Hepatitis C virus. To be noted: Hepatitis C virus, wild-type replicon, in the absence of FBS; read-out: EC50 (nM) 1a WT.
Source text: (§2) [drawing 14] employs a biphenyl linker between the imidazole moieties. See WO2008021927(BMS). The EC50 values of BMS-790052 against different HCV genotypes were shown by Nettles et al., “BMS-790052 is a First-in-class Potent Hepatitis C Virus (HCV) NS5A Inhibitor for Patients with Chronic HCV Infection: Results from a Proof-of-concept Study”, 59th Annual Meeting of the American Association for the Study of Liver Diseases (Oct. 31-Nov. 1, 2008, San Francisco, Calif.; www.natap.org/2008/AASLD/AASLD_06.htm). […] See also Gao et al., NATURE 465:96-100 (2010). The compounds in Table 1 use different linkers between the imidazole moieties. Table 1 depicts the EC50 values of these compounds when tested using respective replicon assays in the presence of 5% (v/v) fetal bovine serum (FBS).
as §1
(§3) Table 3 compares compounds with different linkers between the benzimidazole moieties. Anti-viral activities were determined using 1a and 1b replicon assays. “HP” refers to human plasma. […] As compared to the phenyl linker

For assay [5], the system named is HCV 1a replicon containing NS5A mutation L31V. In words: HCV 1a L31V replicon assay. The format is cell-based, Hepatitis C virus. Particulars: for EC50: Hepatitis C virus, read-out: EC50 (nM) 1a L31V. Here is the method: as §1
Assay [6] relates to HCV 1b replicon containing NS5A mutation L28T. In words: HCV 1b L28T replicon assay. Type of assay: cell-based. To be noted: Hepatitis C virus, read-out: EC50 (nM) 1b L28T. Here is the method: as §1
Another assay relates to HCV genotype 1b replicon. In words: HCV genotype 1b replicon assay. Particulars: Hepatitis C virus, wild-type replicon, in the absence of FBS; read-out: EC50 (nM) 1b WT. Type of assay: cell-based, Hepatitis C virus.
Source text: as §2, §1, §3

In the next assay the test system is HCV 1b-Con1 replicon. The assay is described as follows: HCV 1b-Con1 replicon assay in the presence of 5% FBS (luciferase reporter). The format is cell-based. To be noted: Hepatitis C virus.

Turning to `COC(=O)NC(C(=O)N1CCCC1c1nc2cc(-c3ccc(-c4ccc5[nH]c([C@@H]6CCCN6C(=O)[C@@H](NC(=O)OC)C(C)C)nc5c4)cc3)ccc2[nH]1)C(C)C` (stereo partly drawn), the EC50 came out at 1 nM in assay [1]; 40 nM in assay [2]; 0.9 nM in assay [3]; 40 nM in assay [4]; 0.09 nM with HCV genotype 1a replicon; 36 nM in assay [5]. The EC50 in [6] was determined as 2.7 nM; in the assay on HCV genotype 1b replicon, 0.01 nM.

Take `COC(=O)N[C@H](C(=O)N1CCC[C@H]1c1nc2cc(F)c(-c3ccc(-c4cc5[nH]c([C@@H]6CCCN6C(=O)[C@@H](NC(=O)OC)C(C)C)nc5cc4F)cc3)cc2[nH]1)C(C)C`: the EC50 in [1] was 2.4 nM; in assay [2] it was 119 nM; in [3] it was 0.5 nM; in assay [4], 26 nM; with HCV genotype 1a replicon, 0.14 nM; in assay [5], 109 nM. For the same molecule, the EC50 in assay [6] was found to be 1.8 nM; in the assay on HCV genotype 1b replicon, 0.003 nM.

`COC(=O)N[C@H](C(=O)N1CCC[C@H]1c1nc2c(F)cc(-c3ccc(-c4cc(F)c5nc([C@@H]6CCCN6C(=O)[C@@H](NC(=O)OC)C(C)C)[nH]c5c4)cc3)cc2[nH]1)C(C)C`: the EC50 in assay [1] is 1.8 nM; in assay [2] it was 59 nM; in [3], 2.4 nM; in [4], 34 nM; in the assay on HCV genotype 1a replicon, 0.26 nM; in [5] it was 5.5 nM. For the same molecule, the values for the EC50 (in [6]; in the assay with HCV genotype 1b replicon) were 4.3 nM and 0.004 nM, respectively.

Consider `COC(=O)N[C@H](C(=O)N1CCC[C@H]1c1nc2cc(F)c(-c3ccc(-c4c(F)cc5nc([C@@H]6CCCN6C(=O)[C@@H](NC(=O)OC)C(C)C)[nH]c5c4F)cc3)c(F)c2[nH]1)C(C)C`, for which the EC50 in assay [1] was found to be 11.6 nM; in assay [2], 306 nM; in [3] it was 5.7 nM; in assay [4], 103 nM; with HCV genotype 1a replicon, 0.28 nM; in assay [5], 33 nM. The EC50 was over 10 nM in [6] and 0.005 nM with HCV genotype 1b replicon.

For `COC(=O)N[C@H](C(=O)N1CCC[C@H]1c1nc2ccc(-c3ccc(-c4ccc5nc([C@@H]6CCCN6C(=O)[C@@H](NC(=O)OC)C(C)C)[nH]c5c4F)cc3)c(F)c2[nH]1)C(C)C`, the EC50 in assay [1] worked out at 5.8 nM; in [2], 52 nM; in [3] it was 3.6 nM; in assay [4], 141 nM; in the assay on HCV genotype 1a replicon, 0.1 nM; in assay [5], 80 nM. For the same molecule, the EC50 in [6] was over 10 nM; in the assay with HCV genotype 1b replicon, 0.007 nM.

In the case of `COC(=O)N[C@H](C(=O)N1CCCC1c1nc2c(F)cc(-c3ccc(-c4cc(F)c5nc([C@@H]6CCCN6C(=O)[C@@H](NC(=O)OC)C(C)C)[nH]c5c4)cc3)cc2[nH]1)C(C)C` (stereo partly drawn), the “activity against HCV variants containing NS5A mutations (e.g., 1a L31V)” value in assay [5] (compared with unsubstituted benzimidazole reference compound of Table 2) was “better activity”.

For the molecule `COC(=O)N[C@H](C(=O)N1CCC[C@H]1c1nc2cc(C3CC[C@H](c4ccc5[nH]c([C@@H]6CCCN6C(=O)[C@@H](NC(=O)OC)C6CCOCC6)nc5c4)N3c3cc(F)c(N4CCCCC4)c(F)c3)ccc2[nH]1)C1CCOCC1` (stereo in doubt) [Example 3.18, dimethyl({(2R,5R)-1-[3,5-difluoro-4-(piperidin-1-yl)phenyl]pyrrolidine-2,5-diyl}bis{1H-benzimidazole-5,2-diyl(2S)pyrrolidine-2,1-diyl[(1S)-2-oxo-1-(tetrahydro-2H-pyran-4-yl)ethane-2,1-diyl]})biscarbamate], the EC50 in the assay on HCV 1b-Con1 replicon is under 0.1 nM.

Consider `COC(=O)N[C@H](C(=O)N1CCCC1c1nc2cc([C@H]3CCC(c4cc5nc([C@@H]6CCCN6C(=O)[C@@H](NC(=O)OC)C(C)C)[nH]c5cc4F)N3c3cnc(N4CCC(c5ccccc5)CC4)nc3)c(F)cc2[nH]1)C(C)C` (stereo in doubt) [Example 3.46, methyl{(2S)-1-[(2S)-2-(6-fluoro-5-{(2R,5S)-5-{6-fluoro-2-[(2S)-1-{(2S)-2-[(methoxycarbonyl)amino]-3-methylbutanoyl}pyrrolidin-2-yl]-1H-benzimidazol-5-yl}-1-[2-(4-phenylpiperidin-1-yl)pyrimidin-5-yl]pyrrolidin-2-yl}-1H-benzimidazol-2-yl)pyrrolidin-1-yl]-3-methyl-1-oxobutan-2-yl}carbamate], for which, in the assay on HCV 1b-Con1 replicon, the EC50 was under 0.1 nM.

Regarding `COC(=O)N[C@H](C(=O)N1CCC[C@H]1c1nc2cc([C@H]3CC[C@H](c4ccc5[nH]c([C@@H]6CCCN6C(=O)[C@@H](NC(=O)OC)C(C)C)nc5c4)N3c3ccc(N4CCCCC4=O)cc3)ccc2[nH]1)C(C)C` [Example 1.2], in the assay on HCV 1b-Con1 replicon, the EC50 was over 10000 nM.

With `COC(=O)N[C@H](C(=O)N1CCC[C@H]1c1nc2cc(C3CC[C@H](c4cc5nc([C@@H]6CCCN6C(=O)[C@@H](NC(=O)OC)C(C)C)[nH]c5cc4F)N3c3cc(F)c(N4CC(C)CC(C)C4)c(F)c3)c(F)cc2[nH]1)C(C)C` (stereo partly drawn) [Example 2.16, methyl{(2S)-1-[(2S)-2-{5-[(5R)-1-[4-(3,5-dimethylpiperidin-1-yl)-3,5-difluorophenyl]-5-{6-fluoro-2-[(2S)-1-{(2S)-2-[(methoxycarbonyl)amino]-3-methylbutanoyl}pyrrolidin-2-yl]-1H-benzimidazol-5-yl}pyrrolidin-2-yl]-6-fluoro-1H-benzimidazol-2-yl}pyrrolidin-1-yl]-3-methyl-1-oxobutan-2-yl}carbamate], in the assay with HCV 1b-Con1 replicon, the EC50 was under 0.1 nM.

Consider `CC(C)(C)OC(=O)NCC(=O)N1CCC[C@H]1c1nc2cc([C@@H]3CC[C@@H](c4ccc5[nH]c([C@@H]6CCCN6C(=O)CNC(=O)OC(C)(C)C)nc5c4)N3c3ccc(N4CCCCC4)c(F)c3)ccc2[nH]1` [Example 3.14, tert-butyl {2-[(2S)-2-(5-{(2S,5S)-5-{2-[(2S)-1-{[(tert-butoxycarbonyl)amino]acetyl}pyrrolidin-2-yl]-1H-benzimidazol-5-yl}-1-[3-fluoro-4-(piperidin-1-yl)phenyl]pyrrolidin-2-yl}-1H-benzimidazol-2-yl)pyrrolidin-1-yl]-2-oxoethyl}carbamate], for which the EC50 in the assay with HCV 1b-Con1 replicon was over 10000 nM.

For the molecule `COC(=O)N[C@H](C(=O)N1C(c2nc3cc([C@H]4CCC(c5ccc6[nH]c([C@@H]7C[C@@H]8CCC[C@@H]8N7C(=O)[C@@H](NC(=O)OC)C(C)C)nc6c5)N4c4cc(F)c(N5CCCCC5)c(F)c4)ccc3[nH]2)C[C@@H]2CCC[C@@H]21)C(C)C` (stereo partly drawn) [Example 4.18], the EC50 in the assay on HCV 1b-Con1 replicon is under 0.1 nM.

For `COC(=O)N[C@H](C(=O)N1C(c2nc3cc([C@H]4CC[C@H](c5ccc6[nH]c([C@@H]7C[C@@H]8CCC[C@@H]8N7C(=O)[C@@H](NC(=O)OC)C(C)C)nc6c5)N4c4ccc(C(C)(C)C)cc4)ccc3[nH]2)C[C@@H]2CCC[C@@H]21)C(C)C` (stereo partly drawn) [Example 4.19, methyl{(2S)-1-[(2S,3aS,6aS)-2-{5-[(2R,5R)-1-(4-tert-butylphenyl)-5-{2-[(3aS,6aS)-1-{(2S)-2-[(methoxycarbonyl)amino]-3-methylbutanoyl}octahydrocyclopenta[b]pyrrol-2-yl]-1H-benzimidazol-5-yl}pyrrolidin-2-yl]-1H-benzimidazol-2-yl}hexahydrocyclopenta[b]pyrrol-1(2H)-yl]-3-methyl-1-oxobutan-2-yl}carbamate], the EC50 in the assay with HCV 1b-Con1 replicon is under 0.1 nM.
